Results: patent US10280159B2 (AbbVie Deutschland GmbH & Co. KG, priority 2015, dated 2019)
pEC50: −log10 of the molar value. Like-named read-outs stand apart in the source and are kept apart here.

Tests used:
Format in all cases: cell-based
[1] = target: T1, human S1PR4 (Homo sapiens, UniProt O95977); assay: Intracellular Ca2+ release (FLIPR) agonist potency, S1P4
T1 construct: host or cells: CHO-K1
T1 sequence (O95977 1-384): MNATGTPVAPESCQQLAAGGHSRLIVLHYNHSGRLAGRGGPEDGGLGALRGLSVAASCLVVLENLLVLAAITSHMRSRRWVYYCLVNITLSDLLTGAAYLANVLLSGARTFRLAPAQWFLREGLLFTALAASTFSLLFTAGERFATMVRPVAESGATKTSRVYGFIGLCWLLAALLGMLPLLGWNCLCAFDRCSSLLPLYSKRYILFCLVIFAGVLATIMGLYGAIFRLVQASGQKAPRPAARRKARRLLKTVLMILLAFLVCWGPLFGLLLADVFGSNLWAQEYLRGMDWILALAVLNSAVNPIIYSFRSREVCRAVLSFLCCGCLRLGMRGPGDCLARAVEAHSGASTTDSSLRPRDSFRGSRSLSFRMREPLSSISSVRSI
How it was run: (§1)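 Readout: FLIPR fluorescence of intracellular Ca2+ release in CHO-K1 cells co-expressing receptor, aequorin and Gq/i5. Data were normalized to the phospho-fingolimod curve; EC50 from nonlinear fit. Phospho-fingolimod served as positive control.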

[2] = target: T2, human S1PR5 (Homo sapiens, UniProt Q9H228); assay: Intracellular Ca2+ release (FLIPR) agonist potency, S1P5
T2 construct: host or cells: CHO-K1
T2 sequence (Q9H228 whole entry): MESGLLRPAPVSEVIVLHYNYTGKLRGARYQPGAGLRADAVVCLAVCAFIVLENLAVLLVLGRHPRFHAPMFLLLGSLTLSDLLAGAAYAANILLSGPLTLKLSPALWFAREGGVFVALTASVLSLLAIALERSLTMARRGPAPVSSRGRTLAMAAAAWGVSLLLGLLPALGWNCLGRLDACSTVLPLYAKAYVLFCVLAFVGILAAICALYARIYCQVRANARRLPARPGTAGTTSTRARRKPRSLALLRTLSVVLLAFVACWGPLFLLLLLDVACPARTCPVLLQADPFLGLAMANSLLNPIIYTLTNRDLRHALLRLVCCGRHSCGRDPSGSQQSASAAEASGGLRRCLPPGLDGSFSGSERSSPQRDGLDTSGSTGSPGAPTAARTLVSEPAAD
How it was run: as §1

[3] = target: T3, human S1PR3 (Homo sapiens, UniProt Q99500); assay: Intracellular Ca2+ release (FLIPR) agonist potency, S1P3
T3 construct: host or cells: CHO-K1
T3 sequence (Q99500 whole entry): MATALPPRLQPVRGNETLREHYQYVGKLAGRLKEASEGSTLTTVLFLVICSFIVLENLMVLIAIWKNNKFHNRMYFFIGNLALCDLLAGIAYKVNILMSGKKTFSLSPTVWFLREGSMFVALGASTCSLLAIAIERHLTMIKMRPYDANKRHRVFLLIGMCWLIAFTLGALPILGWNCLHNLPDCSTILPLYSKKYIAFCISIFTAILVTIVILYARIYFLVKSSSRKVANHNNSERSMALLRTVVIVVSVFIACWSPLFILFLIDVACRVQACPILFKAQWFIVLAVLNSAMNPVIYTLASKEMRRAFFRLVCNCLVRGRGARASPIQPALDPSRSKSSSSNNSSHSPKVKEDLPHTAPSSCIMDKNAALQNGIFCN
Experimental: Agonistic activity was measured using the method described below.
Intracellular Ca^2+ Release
Agonist potency and intrinsic activity was assessed by measurement of intracellular Ca^2+ release. Recombinant CHO-K1 cells (Euroscreen, Brussels, Belgium) expressing human S1PR5, S1PR1, S1PR3 or S1PR4 receptors, aequorin, and GTP binding protein Gq/i5 were cultured using a medium containing nutrient mixture F-12 Ham (Sigma-Aldrich) with 10% FBS, and 100 μg/mL gentamicin and equilibrated at 5% CO2.
Phospho-fingolimod was used as positive control. Antagonists were pre-incubated for 10 min with cells before addition of the agonist (phospho-fingolimod at EC80). Measurements were performed using a fluorometric imaging plate reader FLIPR®tetra (Molecular Devices). Agonist at the human S1P receptors were characterized by deducing EC50 (potency) values from a nonlinear fit to the measured fluorescence raw data after normalization to the reference agonist (phospho-fingolimod) curve.

[4] = target: T4, human S1PR1 (Homo sapiens, UniProt P21453); assay: Intracellular Ca2+ release (FLIPR) agonist potency, S1P1
T4 construct: host or cells: CHO-K1
T4 sequence (P21453 whole entry): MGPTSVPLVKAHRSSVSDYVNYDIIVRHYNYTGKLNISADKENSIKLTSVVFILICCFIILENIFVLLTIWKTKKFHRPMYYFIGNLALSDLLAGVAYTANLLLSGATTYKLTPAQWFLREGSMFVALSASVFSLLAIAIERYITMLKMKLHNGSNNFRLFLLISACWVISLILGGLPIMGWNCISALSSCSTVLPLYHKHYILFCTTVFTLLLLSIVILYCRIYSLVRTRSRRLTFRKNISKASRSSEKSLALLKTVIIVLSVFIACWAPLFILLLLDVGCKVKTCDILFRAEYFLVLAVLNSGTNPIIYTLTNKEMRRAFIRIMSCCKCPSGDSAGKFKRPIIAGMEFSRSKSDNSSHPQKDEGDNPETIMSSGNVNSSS
How it was run: as §1

[5] = recombinant CHO-K1 cells expressing human S1PR4, aequorin, Gq/i5, Calcium 5 FLIPR, read-out: S1P4 EC50
[6] = recombinant CHO-K1 cells expressing human S1PR5, aequorin, Gq/i5, Calcium 5 FLIPR, read-out: S1P5 EC50 range
[7] = recombinant CHO-K1 cells expressing human S1PR3, aequorin, Gq/i5, Calcium 5 FLIPR, read-out: S1P3 EC50
[8] = recombinant CHO-K1 cells expressing human S1PR1, aequorin, Gq/i5, Calcium 5 FLIPR, read-out: S1P1 EC50

pEC50 [1, 5] | pEC50 [2, 6] | pEC50 [3, 7] | pEC50 [4, 8] | Compound | pEC50 [1] | pEC50 ([2]; S1P5 EC50 range) | pEC50 [3] | pEC50 [4]
< 6.00 | 6.00 to 7.00 | < 6.00 | < 6.00 | O=C(O)C1CN(C2COc3cc(OCc4ccc(Cl)cc4Cl)ccc3C2)C1 (centres unmarked) [Compound 68, 1-(7-((2,4-dichlorobenzyl)oxy)chroman-3-yl)azetidine-3-carboxylic acid] | – | – | – | –
> 6.00 | 7.00 to 8.00 | < 6.00 | < 6.00 | O=C(O)CC1CCN(C2CCc3cc(OCc4c(Cl)cccc4Cl)ccc3C2)C1 (centres unmarked) [Compound 80, 2-(1-(6-((2,6-dichlorobenzyl)oxy)-1,2,3,4-tetrahydronaphthalen-2-yl)pyrrolidin-3-yl)acetic acid] | – | – | – | –
> 6.00 | > 8.00 | < 6.00 | < 6.00 | O=C(O)C1CCN(C2CCc3cc(OCc4c(Cl)cccc4Cl)ccc3C2)C1 (centres unmarked) [Compound 74, 1-(6-((2,6-dichlorobenzyl)oxy)-1,2,3,4-tetrahydronaphthalen-2-yl)pyrrolidine-3-carboxylic acid] | – | – | – | –
> 6.00 | > 8.00 | < 6.00 | < 6.00 | O=C(O)CNC1CCc2cc(OCc3c(Cl)cccc3Cl)ccc2C1 (centres unmarked) [Compound 75, 2-((6-((2,6-dichlorobenzyl)oxy)-1,2,3,4-tetrahydronaphthalen-2-yl)amino)acetic acid] | – | – | – | –
< 6.00 | 7.00 to 8.00 | < 6.00 | < 6.00 | O=C(O)C12CC(NC3COc4cc(OCc5c(Cl)cccc5Cl)ccc4C3)(C1)C2 (centres unmarked) [Compound 48, 3-((7-((2,6-dichlorobenzyl)oxy)chroman-3-yl)amino)-bicyclo[1.1.1]pentane-1-carboxylic acid] | – | – | – | –
> 6.00 | > 8.00 | < 6.00 | > 6.00 | O=C(O)CCNC1CCc2cc(/C=C/c3c(Cl)cccc3Cl)ccc2C1 (centres unmarked) [Compound 18, (E)-3-((6-(2,6-dichlorostyryl)-1,2,3,4-tetrahydronaphthalen-2-yl)amino)-propanoic acid] | – | – | – | –
> 6.00 | 7.00 to 8.00 | < 6.00 | < 6.00 | CCc1ccccc1COc1ccc2c(c1)OCC(N1CC(C(=O)O)C1)C2 (centres unmarked) [Compound 64, 1-(7-((2-ethylbenzyl)oxy)chroman-3-yl)azetidine-3-carboxylic acid] | – | – | – | –
> 6.00 | > 8.00 | < 6.00 | < 6.00 | CCc1cccc(Cl)c1COc1ccc2c(c1)CCC(NC1(C(=O)O)CC1)C2 (centres unmarked) [Compound 5, 1-((6-((2-chloro-6-ethylbenzyl)oxy)-1,2,3,4-tetrahydronaphthalen-2-yl)amino)cyclopropanecarboxylic acid] | – | – | – | –
> 6.00 | > 8.00 | < 6.00 | < 6.00 | O=C(O)CCNC1CCc2cc(C#Cc3cc(F)cc(F)c3)ccc2C1 (centres unmarked) [Compound 14, 3-((6-((3,5-difluorophenyl)ethynyl)-1,2,3,4-tetrahydronaphthalen-2-yl)amino)propanoic acid] | – | – | – | –
– | 5.00 to 6.00 | < 6.00 | < 6.00 | O=C(O)CCNC1CCc2cc(OCc3ccc(Cl)cc3)ccc2C1 (centres unmarked) [Compound 11, 3-((6-((4-chlorobenzyl)oxy)-1,2,3,4-tetrahydronaphthalen-2-yl)amino) propanoic acid] | – | – | – | –
– | 5.00 to 6.00 | < 6.00 | < 6.00 | O=C(O)CCNC1CCc2ccc(OCc3c(Cl)cccc3Cl)cc2C1 (centres unmarked) [Compound 10, 3-((7-((2,6-dichlorobenzyl)oxy)-1,2,3,4-tetrahydronaphthalen-2-yl)amino)propanoic acid] | – | – | – | –
– | > 8.00 | < 6.00 | < 6.00 | O=C(O)C1CN(C2CCc3cc(OCc4c(Cl)cccc4Cl)ccc3C2)C1 (centres unmarked) [Compound 4, 1-(6-((2,6-dichlorobenzyl)oxy)-1,2,3,4-tetrahydronaphthalen-2-yl)azetidine-3-carboxylic acid] | – | – | – | –
– | 7.00 to 8.00 | < 6.00 | < 6.00 | O=C(O)CCNC1CCc2cc(OCc3ccccc3)ccc2C1 (centres unmarked) [Compound 7, 3-((6-(benzyloxy)-1,2,3,4-tetrahydronaphthalen-2-yl)amino)propanoic acid] | – | – | – | –
– | > 8.00 | < 6.00 | > 6.00 | CCc1cccc(Cl)c1COc1ccc2c(c1)CCC(NCCC(=O)O)C2 (centres unmarked) [Compound 6, 3-((6-((2-chloro-6-ethylbenzyl)oxy)-1,2,3,4-tetrahydronaphthalen-2-yl)amino)propanoic acid] | – | – | – | –
< 6.00 | 5.00 to 6.00 | – | < 6.00 | O=C(O)COC1CCc2cc(OCc3cc(C(F)(F)F)ccc3Cl)ccc2C1 (centres unmarked) [Compound 151, 2-[6-[[2-chloro-5-(trifluoromethyl)phenyl]methoxy]tetralin-2-yl]oxyacetic acid] | – | – | – | –
< 6.00 | 5.00 to 6.00 | – | < 6.00 | Cc1ccc(COc2ccc3c(c2)OCC(N2CC(C(=O)O)C2)C3)c(F)c1 (centres unmarked) [Compound 88, 1-[7-[(2-fluoro-4-methyl-phenyl)methoxy]chroman-3-yl]azetidine-3-carboxylic acid] | – | – | – | –

The next lines start with the molecule.

Compound | pEC50 [1, 5] | pEC50 [2, 6] | pEC50 [3, 7] | pEC50 [4, 8] | pEC50 [1] | pEC50 ([2]; S1P5 EC50 range) | pEC50 [3] | pEC50 [4]
O=C(O)COC1CCc2cc(OCc3cccc(C(F)(F)F)c3)ccc2C1 (centres unmarked) [Compound 213, 2-[6-[[3-(trifluoromethyl)phenyl]methoxy]tetralin-2-yl]oxyacetic acid] | > 6.00 | 7.00 to 8.00 | < 6.00 | < 6.00 | – | – | – | –
O=C(O)CC1CN(C2CCc3cc(OCc4c(Cl)cccc4Cl)ccc3C2)C1 (centres unmarked) [Compound 78, 2-(1-(6-((2,6-dichlorobenzyl)oxy)-1,2,3,4-tetrahydronaphthalen-2-yl)azetidin-3-yl)acetic acid] | > 6.00 | > 8.00 | < 6.00 | < 6.00 | – | – | – | –
CN(CCC(=O)O)C1CCc2cc(OCc3ccccc3Cl)ccc2C1 (centres unmarked) [Compound 16, 3-((6-((2-chlorobenzyl)oxy)-1,2,3,4-tetrahydronaphthalen-2-yl)(methyl)amino)propanoic acid] | > 6.00 | 6.00 to 7.00 | < 6.00 | < 6.00 | – | – | – | –
O=C(O)COC1CCc2cc(OCc3c(Cl)cccc3Cl)ccc2C1 (centres unmarked) [Compound 210, 2-[6-[(2,6-dichlorophenyl)methoxy]tetralin-2-yl]oxyacetic acid] | < 6.00 | 6.00 to 7.00 | < 6.00 | < 6.00 | – | – | – | –
O=C(O)C1CN(C2COc3cc(C#Cc4c(F)cccc4F)ccc3C2)C1 (centres unmarked) [Compound 47, 1-(7-((2,6-difluorophenyl)ethynyl)chroman-3-yl)azetidine-3-carboxylic acid] | > 6.00 | 7.00 to 8.00 | < 6.00 | < 6.00 | – | – | – | –
CCc1cccc(Cl)c1COc1ccc2c(c1)CCC(NCC(=O)NOC)C2 (centres unmarked) [Compound 218, 2-[[6-[(2-chloro-6-ethyl-phenyl)methoxy]tetralin-2-yl]amino]-N-methoxy-acetamide] | < 6.00 | 6.00 to 7.00 | < 6.00 | < 6.00 | – | – | – | –
CCc1cccc(Cl)c1COc1ccc2c(c1)CCC(NCc1cc(=O)[nH]o1)C2 (centres unmarked) [Compound 220, 5-[[[6-[(2-chloro-6-ethyl-phenyl)methoxy]tetralin-2-yl]amino]methyl]isoxazol-3-one] | – | – | – | – | > 6.00 | > 8.00 | < 6.00 | > 6.00
O=C(O)COC1CCc2cc(OCc3cc(F)ccc3C(F)(F)F)ccc2C1 (centres unmarked) [Compound 168, 2-[6-[[5-fluoro-2-(trifluoromethyl)phenyl]methoxy]tetralin-2-yl]oxyacetic acid] | > 6.00 | > 8.00 | < 6.00 | < 6.00 | – | – | – | –
O=C(O)CCNC1CCc2cc(OCc3c(Cl)cccc3Cl)ccc2C1 (centres unmarked) [Compound 9, 3-((6-((2,6-dichlorobenzyl)oxy)-1,2,3,4-tetrahydronaphthalen-2-yl)amino)propanoic acid] | – | > 8.00 | < 6.00 | < 6.00 | – | – | – | –
O=C(O)C1CN(C2CCOc3cc(OCc4c(Cl)cccc4Cl)c(F)cc32)C1 (centres unmarked) [Compound 223, 1-[7-[(2,6-dichlorophenyl)methoxy]-6-fluoro-chroman-4-yl]azetidine-3-carboxylic acid] | < 6.00 | > 8.00 | – | < 6.00 | – | – | – | –
CCOc1ccc(C#Cc2ccc3c(c2)OCC(N2CC(C(=O)O)C2)C3)cc1 (centres unmarked) [Compound 45, 1-(7-((4-ethoxyphenyl)ethynyl)chroman-3-yl)azetidine-3-carboxylic acid] | < 6.00 | 6.00 to 7.00 | – | > 6.00 | – | – | – | –
